# Data reported in patent US8986733B2, “Materials and methods for nerve repair” (University of Florida Research Foundation, Inc., priority 2001, dated 2015).
# Experiments:
# CSPG = CSPG neoepitope (Ab1918) immunolabeling of acellular rat sciatic nerve segments treated en bloc; format: biochemical; conditions: en bloc treatment 16 h
# From the text: Preparation of acellular nerve grafts treated with chondroitinase. Adult (180-200 g) female SPRAGUE DAWLEY rats (HARLAN, Indianapolis, Ind.) were used as nerve donors and recipient hosts. Donor rats were anesthetized with halothane and decapitated. Sciatic nerves were exposed through a gluteal muscle-splitting incision and isolated free of underlying fascia. A 15-mm nerve segment was excised rostral to the bifurcation into common peroneal and tibial nerves. The segments were rinsed with cold sterile Ringer's solution, stabilized by pinning the ends to a thin plastic support, and transferred to a cryogenic vial. The vials were submerged in liquid nitrogen for 2 minutes and then transferred to a 37° C. water bath for 2 minutes. This freeze/thaw cycle was repeated, yielding acellular nerve grafts that were then stored in liquid nitrogen. On the day before grafting, the nerve grafts were warmed to room temperature and incubated in 100 μl phosphate buffered saline pH 7.4 (PBS) containing 2 units/ml chondroitinase ABC (SIGMA, St. Louis, Mo.) or in PBS (vehicle) only for 16 hours at 37° C. The grafts were rinsed twice with Ringer's and kept on ice prior to use. […]
# Immunocytochemistry. Axonal regeneration was assessed by GAP-43 immunofluorescence and digital image analysis. […]
# rat sciatic nerve = test: Interpositional acellular nerve grafting, GAP-43 axon scoring; format: in vivo
# From the text: Preparation of acellular nerve grafts treated with chondroitinase. Adult (180-200 g) female SPRAGUE DAWLEY rats (HARLAN, Indianapolis, Ind.) were used as nerve donors and recipient hosts. Donor rats were anesthetized with halothane and decapitated. Sciatic nerves were exposed through a gluteal muscle-splitting incision and isolated free of underlying fascia. A 15-mm nerve segment was excised rostral to the bifurcation into common peroneal and tibial nerves. The segments were rinsed with cold sterile Ringer's solution, stabilized by pinning the ends to a thin plastic support, and transferred to a cryogenic vial. The vials were submerged in liquid nitrogen for 2 minutes and then transferred to a 37° C. water bath for 2 minutes. This freeze/thaw cycle was repeated, yielding acellular nerve grafts that were then stored in liquid nitrogen. On the day before grafting, the nerve grafts were warmed to room temperature and incubated in 100 μl phosphate buffered saline pH 7.4 (PBS) containing 2 units/ml chondroitinase ABC (SIGMA, St. Louis, Mo.) or in PBS (vehicle) only for 16 hours at 37° C. The grafts were rinsed twice with Ringer's and kept on ice prior to use. The chondroitinase ABC preparation was highly purified and stated by the manufacturer to be essentially free of protease activity.
# Interpositional nerve grafting for chondroitinase experiments. Twelve rats received bilateral acellular nerve grafts, one chondroitinase-treated and one vehicle-treated graft. Host rats were deeply anesthetized using xylazine (15 mg/kg, i.m.) and ketamine (110 mg/kg, i.p.). The sciatic nerve was exposed and supported by a plastic insert placed between the nerve and underlying tissue. The region of nerve halfway between the sciatic notch and bifurcation was first coated with fibrin glue. […]
# The main grafts were sectioned serially on the transverse plane in recorded measure to assess the extent of axonal growth by microscopy. […] GAP-43-positive axon profiles were scored using IMAGE-PRO PLUS software (MEDIA CYBERNETICS, Silver Springs, Md.). […]
substance,measurement,setting,value
chondroitinase ABC,CSPG degradation (Ab1918 neoepitope immunostaining),CSPG,thoroughly degraded CSPG side-chains
same,latency of axonal regeneration into acellular nerve grafts,rat sciatic nerve; 4-day and 8-day grafts,decreases the latency
same,axonal penetration vs control grafts,"rat sciatic nerve; 4-day grafts, 0.3 mm from the host-graft interface",five-fold greater
same,average number of axons (GAP-43-immunopositive profiles) entering grafts vs control grafts,"rat sciatic nerve; 8-day grafts, en bloc treated acellular syngrafts",more than three-fold greater
